Assays:
[1] = system: MCF-7 cells; test: S phase entry (BrdU) after nocodazole synchronization; type: cell-based; conditions: cells synchronized at M phase by nocodazole, re-plated
Procedure: To test whether IBR2 treated cells are arrested at G1 and thus fail to enter S phase, MCF-7 cells were synchronized at M phase by nocodazole treatment and then re-plated to allow the entry to G1 phase. At different time points, cells were pulse labeled with BrdU to monitor S phase entry.
Cell culture, cell synchronization, BrdU labeling and determination of mitotic index: Breast cancer cell lines and MEF cell lines were cultured in high-glucose Dulbecco modified Eagle medium containing 10% fetal bovine serum. MCF-10A cells were cultured as described previously (Debnath et al., 2003). Cell synchronization at M phase was achieved by treatment with 0.1 μg/ml nocodazole for 8 hours. Cell synchronization at G1/S boundary was achieved by treatment with 1 mM hydroxyurea for 17 hours, 9 hours of release and again with 1 mM hydroxyurea for 14 hours. For BrdU labeling, cells were incubated with BrdU for 30 minutes and fixed for BrdU immunostaining using a BrdU labeling kit (Amersham Biosciences). For determination of mitotic index, cells were fixed in 4% formaldehyde in PBS containing 0.1 μg/ml DAPI for 30 minutes at room temperature and examined by fluorescence microscopy. 500-1000 nuclei per sample were counted to determine the number of M phase cells which only includes prometaphase, metaphase, anaphase and telophase.

[2] = system: MCF-7 cells; test: Western blot of protein levels; type: cell-based; conditions: 20 mM IBR2, time dependent
Text: To examine the impact of IBR2 on Rad51 protein expression, IBR2 treated MCF-7 cells was examined by straight western blot probed with a panel of antibodies against BRCA2, Rad51, Rad50, p84 and Rb. […] Consistent with our FACS analysis (FIG. 4A), the hypo-phosphorylated form of Rb, a marker for G1 phase, was the major form observed in the later time points, further confirming that IBR2 arrests cells at G1 phase (FIG. 4A). It has been reported that BRCA2 level is cell cycle dependent, which expresses low in G1 phase and peaks at G1/S boundary. Therefore the decreased level of BRCA2 in IBR2 treated cells may be due to G1 phase arrest. Different from BRCA2 protein, Rad51 protein is expressed constant throughout the cell cycle in MCF-7 cells (data not shown). Therefore, loss of Rad51 protein may be the direct effect of IBR2 treatment instead of the consequence of G1 arrest. To test whether IBR2 decreases Rad51 levels by destabilization, the inventors performed a stability assay by adding cyclohexamide (CHX) to inhibit de novo protein synthesis. […] Therefore, the inventors contemplate that IBR2 treated MCF-7 cells were arrested at G1, blocked at M phase entry, and died at S/G2 phase.
Western blot analysis: Cells were treated with 20 mM IBR2 or 50 μg/ml cycloheximide (CHX) or 1 μM MG132 and harvested at different time points for western blot analysis. Cells resuspended in Lysis 250 buffer were subjected to three freeze/thaw cycles (liquid nitrogen/37° C.) and then centrifuged at 14,000 rpm for 2 minutes at room temperature. After measuring protein concentration, equal amount of total cellular proteins were subjected to SDS-PAGE and immunoblot analyses were performed as described previously (Chen et al., 1999). Antibodies used were: Rad51 (rabbit 5952); BRCA2 (rabbit PC146, Oncogene); Rb (mAb 11D7); Rad50 (mAb 13B3) and p84 (mAb 5E10). The intensity of bands was quantified by densitometry using Labworks 4.5 software. The relative value of the band intensity was calculated with respect to that of untreated sample after normalization with the p84 signal.

[3] = biological target: T1, Rad51-BRC repeat complex (Homo sapiens, UniProt Q06609); test: SPR solution competition assay; type: binding; conditions: SPR solution competition format; read-out: median inhibitory concentration (IC50), displacement of BRC repeat from complex with Rad51
T1 sequence (Q06609 1-339): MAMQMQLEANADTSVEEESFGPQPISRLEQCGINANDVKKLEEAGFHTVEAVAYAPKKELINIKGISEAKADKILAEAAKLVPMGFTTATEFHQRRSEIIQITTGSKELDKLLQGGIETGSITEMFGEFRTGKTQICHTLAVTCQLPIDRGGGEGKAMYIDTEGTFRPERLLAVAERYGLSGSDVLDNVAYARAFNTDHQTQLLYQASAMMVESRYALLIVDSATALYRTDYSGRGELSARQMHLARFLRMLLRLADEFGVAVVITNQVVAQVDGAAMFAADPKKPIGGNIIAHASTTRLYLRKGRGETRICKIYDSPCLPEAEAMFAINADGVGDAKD
Text: If the IBR compound indeed occupies the hydrophobic pocket for the entrance of Phe1524 in BRCA2, the oligomerization of Rad51 should also be affected since they share the same binding region. […] Therefore, if IBR2 mimics the BRC hairpin structure, the Rad51 multimerization will also be inhibited by IBR2. We compared the gel filtration profile of Rad51 between with and without IBR2. […] The inhibition of the Rad51 and BRC repeat binding was further analyzed by SPR technology in a solution competition format as previously described (see e.g., Science 303, 844-848).
Surface Plasmon Resonance binding assays: The assays were performed at 25° C. in HBSD buffer (10 mM HEPES, 150 mM NaCl, 0.1% DMSO) on Biacore3000 (Biacore Inc.). Sensor chips NTA or glutathione-modified CM5 were used to capture His-Rad51 or GST-BRC1, respectively. The capture level was about 130 resonance units at a flow rate of 5 μl/min. For sequential binding assays, chips were treated with compounds (1 μM) and then proteins (50 μg/ml). The retained resonance units (RU) were recorded and averaged from triplicate experiments. For competition assays (Vassilev et al., 2004), IBR2 was incubated with 50 μg/ml BRC at 25° C. for 15 minutes prior to use. Relative binding percentages were calculated with respect to the binding without IBR2 and averaged from two independent experiments.

[4] = system: MCF-7 cells; test: Cell cycle analysis by flow cytometry (FACS); type: cell-based; conditions: 20 μM IBR2, time-dependent
Procedure: To explore the mechanism of how IBR2 inhibits cancer cell growth, the inventors analyzed cell cycle progression of IBR2 treated MCF-7 cells by flow cytometry (FACS).
Cell cycle analysis by flow cytometry: To analyze cell cycle distribution, […] MCF-7 cells were seeded in 10-cm dishes for 24 hours and treated with […] IBR2 for various times. Cells were then trypsinized and fixed with 70% ethanol (−20° C.) and stained for 30 minutes with propidium iodide (PI) staining solution (Yun et al., 2005) (50 μg/ml PI, 0.1% sodium citrate, 50 μg/ml RNase A, 0.03% NP-40 in PBS). Flow cytometry analysis was performed using a FACScalibur flow cytometer and cell cycle distribution was analyzed with CellQuest software (Beckton Dickison). 10,000 events were analyzed for each sample and the experiment was repeated twice.

O=S(=O)(Cc1ccccc1)N1C=Cc2ccccc2C1c1c[nH]c2ccccc12 (stereo not drawn) [IBR2, 2-(benzylsulfonyl)-1-(1H-indol-3-yl)-1,2-dihydroisoquinoline]
S phase entry (BrdU positive cells) [1]: completely arrested at G1 and failed to enter S phase | BRCA2 protein level [2]: decreased dramatically | Rad50 protein level [2]: remained constant | Rad51 protein level [2]: decreased dramatically | p84 protein level [2]: remained constant | IC50 [3]: ~115 nM | G1 fraction [4]: increased | S and G2/M fractions [4]: depleted | sub-G1 fraction (apoptotic cells) [4]: significantly increased

From patent publication US8293764B2, “Compositions and methods for disruption of BRCA2-Rad51 interaction” (The Regents of the University of California, priority 2004, dated 2012)
